We go through 40 compounds from PubChem BioAssay (NCI).

SMILES strings stand for the structures. Several values for one entry are separate records, joined by “and”; a condition that tells them apart may be missing. Equal values may be shown once.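 48-hour exposure; five concentrations; linearly interpolated endpoints. GI50 is the concentration that inhibits growth by half. The concentration for full growth arrest is given as TGI.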 Bounds are passed on as bounds.

The test system of this assay is MDA-MB-468 breast. The assay is described as follows: growth of human tumour cells (NCI), 48 h.
`COc1cc(Nc2ncc(-c3ccccc3)o2)cc(OC)c1`: the GI50 was 7.94 µM and the TGI is over 25 µM.
With `CC1=C(SCCC(=O)OC(C[Se]C2=C(C)C(=O)c3ccccc3C2=O)C(=O)NCCCCCC(=O)OCc2ccccc2)C(=O)c2ccccc2C1=O` (centres undefined), the GI50 is 3 µM and the TGI stood at 8.54 µM.
For `COC12C=C/C(=C(/C(=O)OCc3ccccn3)C(=O)CCCCCCCCC3(OC)C=C/C(=C(/C(=O)OCc4ccccn4)C(=O)CCCCCCCC1)O3)O2`, the GI50 is 0.314 µM and the TGI was determined as 1.15 µM.
As to `COc1ccc2c(c1OC)CO[C@@H]2[C@H]1c2c(cc3c(c2OC)OCO3)CCN1S(=O)(=O)c1cn(C)cn1`, the GI50 is 0.324 µM and the TGI came out at 5.93 µM.
Turning to `O=C(N/N=C\c1ccc(N(CCCl)CCCl)cc1[N+](=O)[O-])c1cccnc1`, the GI50 is over 100 µM and the TGI was over 100 µM.
As for `Nc1nc([Se])c2ncn(C3OC(CO)C(O)C3O)c2n1` (centres undefined), the GI50 was 50.2 µM and the TGI is over 100 µM.
As to `CCN(CC)CCCNc1cc(OC)cc2nc3cc(Cl)ccc3nc12`, the GI50 is 1.15 µM and the TGI came to 2.67 µM.
Regarding `COc1cc(/C=C/C(=O)/C=C/c2ccc(-n3ccnc3C)cc2)ccc1O`, the GI50 was 2.06 µM and the TGI amounted to 4.72 µM.
Consider `COc1ccc(CN2c3ccccc3Sc3ccccc32)c(C(F)(F)F)c1`, for which the GI50 is 0.275 µM and the TGI amounted to 13.6 µM.
For the compound `CCC(C)[C@H](NC(=O)Nc1cc(C(F)(F)F)cc(C(F)(F)F)c1)C(=O)N[C@@H](Cc1cn(C)cn1)C(=O)OC` (some centres undefined), the GI50 is 0.476 µM and the TGI turned out to be 0.971 µM.
`NCCCC[C@@H]1NC(=O)[C@H](CC(=O)O)NC(=O)CNC(=O)[C@H](CCCN=C(N)N)NC(=O)[C@@H](N)CSSC[C@@H](C(=O)O)NC(=O)[C@H](CC(=O)O)NC(=O)[C@@H]2CCCN2C(=O)CNC1=O`: the GI50 was over 100 µM and the TGI is over 100 µM.
In the case of `COC(=O)[C@H](Cc1cnc[nH]1)NC(=O)[C@@H](NC(=O)Nc1cc(C(F)(F)F)cc(C(F)(F)F)c1)C(C)C`, the GI50 is 11.1 µM and the TGI came out at 25.6 µM.
As for `CCC(C)Nc1ccc(N)cc1` (centres undefined), the GI50 was 2.05 µM and the TGI came out at 6.51 µM.
In the same order, the values of `Cc1ccccc1NC(=O)c1sc2nc(C)c(C(=O)/C=C/c3ccccc3)cc2c1N` are 0.927 µM and 1.82 µM.
Turning to `CC1=C2[C@@H](CC1)[C@]1(C)O[C@@](C(C)C)(C[C@H]1OC(=O)CO)[C@H]2OC(=O)C1CC1c1ccccc1` (some centres undefined), the GI50 is 13.2 µM and the TGI worked out at 29.5 µM.
Regarding `CCCCCCCCCCCCCCCCCCn1cc[n+](C)c1`, the GI50 is 0.215 µM and the TGI was found to be 1.64 µM.
The like results for `CC1C(C)N(C(=O)CCl)c2ccccc2N1C(=O)CCl` (centres undefined) were, in that order, 0.296 µM and 1.21 µM.
On to `CNC(=O)c1c(NC(=O)c2ccc(C(C)(C)C)cc2)sc2c1CCC(=O)C2`, for which the GI50 is 0.411 µM and the TGI came to 2.07 µM.
Consider `Cc1ccc(/C=N/Nc2nc(Nc3ccccc3)nc(-n3nc(C)cc3C)n2)cc1`, for which the GI50 is 3.63 µM and the TGI came to 17.1 µM.
`COc1ccc2c(c1)[nH]c(=O)c1c3cccc(F)c3cn21`: the GI50 was 0.187 µM and the TGI came to 0.487 µM.
Consider `CC(C)(C)c1ccc(Oc2ccc(N)cn2)cc1`, for which the GI50 is 28.3 µM and the TGI was over 100 µM.
Turning to `CC1=C(c2ccccc2)C(O)(c2ccccc2)C(C)C1=O` (centres undefined), the GI50 was 4.28 µM and the TGI turned out to be 40.3 µM.
With `NC(=O)c1cc([N+](=O)[O-])c(Cl)c([N+](=O)[O-])c1Cl`, the GI50 is 0.188 µM and the TGI is 0.436 µM.
On to `COc1cccc(CC(C)=C(c2ccc(OCCN3CCCCC3)cc2)c2ccc(OCCN3CCCCC3)cc2)c1`, for which the GI50 was 0.641 µM and the TGI amounted to 2.71 µM.
In the case of `COc1cc(OC)cc(-c2n/c(=C\c3c(O)[nH]c4ccc(OC)cc34)cc3c2=Nc2ccccc2-3)c1`, the GI50 was 12.1 µM and the TGI was 29.8 µM.
For the compound `CNC(=O)c1cc(Oc2ccc(NC(=O)Nc3ccc(Cl)c(C(F)(F)F)c3)c(F)c2)ccn1`, the GI50 was 2.06 µM and 1.67 µM; the TGI is 5.58 µM and 7.93 µM.
With `CC(N)(Cc1c[nH]c2cccc(F)c12)C(=O)O` (centres undefined), the GI50 was over 1000 µM and the TGI is over 1000 µM.
For the compound `COc1ccc(C/C(=C(\C)c2ccc(OCCN3CCCC3)cc2)c2ccc(OCCN3CCCC3)cc2)cc1`, the GI50 was 1.62 µM and the TGI stood at 3.14 µM.
On to `CCOC(=O)Oc1cc2c(c(OC)c1OC)-c1ccc(OC)c(=O)cc1C(NC(C)=O)CC2` (centres undefined), for which the GI50 is under 0.01 µM and the TGI is over 100 µM.
For the compound `CNC(=O)c1c(NC(=O)c2ccc(C(C)(C)C)cc2)sc2c(CN(C)C)c(O)ccc12`, the GI50 was 1.67 µM and the TGI turned out to be 3.36 µM.
For the compound `CC1(C)CNc2cc(NC(=O)c3cccnc3NCc3ccncc3)ccc21`, the GI50 was 12.7 µM and the TGI turned out to be 66.2 µM.
With `Nc1ccc(C2=CC(c3ccc(Cl)cc3)N3C=CSC3=N2)cc1` (centres undefined), the GI50 is 1.9 µM and the TGI was found to be 4.29 µM.
As for `COc1ccc2c(c1)c(-c1nc(-c3c[nH]c4ccncc34)cs1)cn2C`, the GI50 is 0.442 µM and the TGI is 1.85 µM.
As to `CCc1ccc(CCC(=O)Nc2ncc(Cc3ccc(Cl)cc3)s2)o1`, the GI50 was 0.342 µM.
As to `O=C(Nc1ccccc1)Nc1ccc2cc3ccc(NC(=O)Nc4ccccc4)cc3nc2c1`, the GI50 was 0.579 µM and the TGI was 1.92 µM.
Regarding `COc1cc(/C=N/Nc2ncnc3c2cnn3-c2ccccc2)ccc1O`, the GI50 is 4.93 µM and the TGI was over 25 µM.
Turning to `COc1ncc(Nc2ncc([C@@H](C)N3CCN(S(C)(=O)=O)CC3)cc2-c2nc(C)nc(N)n2)cc1F`, the GI50 is under 0.0148 µM and the TGI worked out at 0.16 µM.
The like results for `Cc1cccc2nc3ccccc3c(Nc3ccc(NS(C)(=O)=O)cc3)c12` were, in that order, 8.53 µM and 26.3 µM.
On to `COCc1c(-c2cc3cc(C)cc(OC)c3s2)c2c(N)ncnn2c1CN1CCNC(=O)C1`, for which the GI50 is 1.76 µM and the TGI turned out to be 7.46 µM.
Regarding `CCN(Cc1ccccc1)C1CCN(Cc2cc(Br)ccc2O)CC1`, the GI50 is 15.1 µM and the TGI worked out at 40.8 µM.
